Experimental data taken from US20240366770A1, “DEGRADATION OF BRUTON'S TYROSINE KINASE (BTK) BY CONJUGATION OF BTK INHIBITORS WITH E3 LIGASE LIGAND AND METHODS OF USE” (BeiGene Switzerland GmbH, priority 2021, published 2024).
pIC50: −log10 of the molar value. Read-outs that look alike come from different tables or passages of the source.

Experiments:
[1] = biological target: T1, BTK (Homo sapiens, UniProt Q06187); test: BTK degradation in TMD-8 cells (HTRF assay); type: cell-based; conditions: 6 h treatment, IC50 (DC50) of BTK degradation
T1 construct: High control=Cell group with added DMSO and without compound, indicating microplate readings without BTK degradation; endogenous in cells; host or cells: TMD-8
T1 sequence (Q06187 whole entry): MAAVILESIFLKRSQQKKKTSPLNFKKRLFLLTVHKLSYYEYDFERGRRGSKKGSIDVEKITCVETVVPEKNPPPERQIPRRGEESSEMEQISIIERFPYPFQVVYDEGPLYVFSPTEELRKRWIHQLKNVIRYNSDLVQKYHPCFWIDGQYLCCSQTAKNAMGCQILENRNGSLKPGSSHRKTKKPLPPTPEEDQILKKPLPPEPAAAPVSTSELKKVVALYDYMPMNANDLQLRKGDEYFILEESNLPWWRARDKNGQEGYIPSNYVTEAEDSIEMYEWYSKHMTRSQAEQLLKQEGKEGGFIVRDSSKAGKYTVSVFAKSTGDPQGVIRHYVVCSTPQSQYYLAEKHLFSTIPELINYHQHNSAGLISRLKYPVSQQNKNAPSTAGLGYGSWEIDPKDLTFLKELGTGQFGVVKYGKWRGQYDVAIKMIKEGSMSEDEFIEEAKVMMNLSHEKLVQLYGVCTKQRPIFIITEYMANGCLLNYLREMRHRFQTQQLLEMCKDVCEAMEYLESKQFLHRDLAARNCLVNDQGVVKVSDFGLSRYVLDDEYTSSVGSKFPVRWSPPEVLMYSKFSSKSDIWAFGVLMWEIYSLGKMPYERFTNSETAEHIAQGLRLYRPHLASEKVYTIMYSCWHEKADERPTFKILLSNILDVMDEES
Method in brief: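 TMD-8 cells were exposed for 6 h to 8 compound doses (6-fold serial dilution, 0.2% DMSO). Lysed cells were incubated overnight at room temperature with HTRF antibodies and read at 665/620 nm. DC50 came from four-parameter fitting of % inhibition versus concentration.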

[2] = system: HEK-293 cells; test: HEK-293 cytotoxicity detection (CellTiter-Glo); type: cell-based; conditions: for pIC50: HEK-293 cells, 72 h incubation, CellTiter-Glo luminescence, IC50 of cell proliferation inhibition, read-out: HEK293
Method in brief: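 HEK-293 cells exposed 72 h to an 8-point, 4-fold dilution series (top 500× stock 5 mM in DMSO; 0.2% DMSO final). Viability by CellTiter-Glo luminescence after 10 min at room temperature; IC50 from four-parameter Hill fit of percent inhibition.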

| DC50 [1] | SMILES | pIC50 ([2]; Homo sapiens) | IC50 ([2]; Homo sapiens, HEK293, 72 h, read-out: HEK293 (nM)) | pIC50 [2] |
| --- | --- | --- | --- | --- |
| 1.25 nM | Cc1cc(-c2ncnc3[nH]c4cc(N5CCN([C@H]6C[C@@H](c7ccc(N[C@H]8CCC(=O)NC8=O)cc7)C6)CC5)ccc4c23)ccc1[C@@H](C)NC(=O)c1nc(C2(C)CC2)no1 [Example 120, N—((R)-1-(4-(7-(4-((1R,3s)-3-(4-(((S)-2,6-dioxopiperidin-3-yl)amino)phenyl)cyclobutyl)piperazin-1-yl)-9H-pyrimido[4,5-b]indol-4-yl)-2-methylphenyl)ethyl)-3-(1-methylcyclopropyl)-1,2,4-oxadiazole-5-carboxamide] | < 5.00 |  |  |
| 1.58 nM | Cc1cc(-c2ncnc3[nH]c4cc(N5CCN(C6CN(C7CN(c8ccc9c(c8)C(=O)N(C8CCC(=O)NC8=O)C9=O)C7)C6)CC5)ccc4c23)ccc1[C@@H](C)NC(=O)c1nc(C2(C)CC2)no1 (stereo partly drawn) [Example 121, N-((1R)-1-(4-(7-(4-(1′-(2-(2,6-dioxopiperidin-3-yl)-1,3-dioxoisoindolin-5-yl)-[1,3′-biazetidin]-3-yl)piperazin-1-yl)-9H-pyrimido[4,5-b]indol-4-yl)-2-methylphenyl)ethyl)-3-(1-methylcyclopropyl)-1,2,4-oxadiazole-5-carboxamide] | < 5.00 |  |  |
| 0.395 nM | Cc1cc(-c2ncnc3[nH]c4cc(N5CCN(C6CN(C7CN(c8ccc(N9CCC(=O)NC9=O)cc8)C7)C6)CC5)ccc4c23)ccc1[C@@H](C)NC(=O)c1nc(C2(C)CC2)no1 [Example 122, (R)—N-(1-(4-(7-(4-(1′-(4-(2,4-dioxotetrahydropyrimidin-1(2H)-yl)phenyl)-[1,3′-biazetidin]-3-yl)piperazin-1-yl)-9H-pyrimido[4,5-b]indol-4-yl)-2-methylphenyl)ethyl)-3-(1-methylcyclopropyl)-1,2,4-oxadiazole-5-carboxamide] | < 5.00 |  |  |
| 0.838 nM | Cc1cc(-c2ncnc3[nH]c4cc(N5CCN(CCc6cccc7c6C6(CC6)C(=O)N7C6CCC(=O)NC6=O)CC5)ccc4c23)ccc1[C@@H](C)NC(=O)c1nc(C2(C)CC2)no1 (stereo partly drawn) [Example 124, N-((1R)-1-(4-(7-(4-(2-(1′-(2,6-dioxopiperidin-3-yl)-2′-oxospiro[cyclopropane-1,3′-indolin]-4′-yl)ethyl)piperazin-1-yl)-9H-pyrimido[4,5-b]indol-4-yl)-2-methylphenyl)ethyl)-3-(1-methylcyclopropyl)-1,2,4-oxadiazole-5-carboxamide] | < 5.00 |  |  |
| 0.197 nM | Cc1cc(-c2ncnc3[nH]c4cc(N5CCN(C6CC(c7ccc(N8CCC(=O)NC8=O)cc7)C6)CC5)ccc4c23)ccc1[C@@H](C)NC(=O)c1nc(C2(C)CC2)no1 (stereo partly drawn) [Example 125, (R)—N-(1-(4-(7-(4-(3-(4-(2,4-dioxotetrahydropyrimidin-1(2H)-yl)phenyl)cyclobutyl)piperazin-1-yl)-9H-pyrimido[4,5-b]indol-4-yl)-2-methylphenyl)ethyl)-3-(1-methylcyclopropyl)-1,2,4-oxadiazole-5-carboxamide] | < 5.00 |  |  |
| 0.449 nM | Cc1cc(-c2ncnc3[nH]c4cc(N5CCN(CC6CN(c7ccc(N8CCC(=O)NC8=O)cc7)C6)CC5)ccc4c23)ccc1[C@@H](C)NC(=O)c1nc(C2(C)CC2)no1 [Example 126, (R)—N-(1-(4-(7-(4-((1-(4-(2,4-dioxotetrahydropyrimidin-1(2H)-yl)phenyl)azetidin-3-yl)methyl)piperazin-1-yl)-9H-pyrimido[4,5-b]indol-4-yl)-2-methylphenyl)ethyl)-3-(1-methylcyclopropyl)-1,2,4-oxadiazole-5-carboxamide] | < 5.00 |  |  |
| 2.49 nM | COc1cc2c(cc1N1CCN([C@H]3C[C@@H](c4ccc(O[C@@H]5CCC(=O)NC5=O)cc4)C3)CC1)[nH]c1ncnc(-c3ccc([C@@H](C)NC(=O)c4nc(C(C)(C)C)no4)c(C)c3)c12 [Example 127, 3-(tert-butyl)-N—((R)-1-(4-(7-(4-((1S,3s)-3-(4-(((R)-2,6-dioxopiperidin-3-yl)oxy)phenyl)cyclobutyl)piperazin-1-yl)-6-methoxy-9H-pyrimido[4,5-b]indol-4-yl)-2-methylphenyl)ethyl)-1,2,4-oxadiazole-5-carboxamide] | < 5.00 |  |  |
| 2.12 nM | COc1cc2c(cc1N1CCN([C@H]3C[C@@H](c4ccc(O[C@H]5CCC(=O)NC5=O)cc4)C3)CC1)[nH]c1ncnc(-c3ccc([C@@H](C)NC(=O)c4nc(C(C)(C)C)no4)c(C)c3)c12 [Example 128, 3-(tert-butyl)-N—((R)-1-(4-(7-(4-((1R,3s)-3-(4-(((S)-2,6-dioxopiperidin-3-yl)oxy)phenyl)cyclobutyl)piperazin-1-yl)-6-methoxy-9H-pyrimido[4,5-b]indol-4-yl)-2-methylphenyl)ethyl)-1,2,4-oxadiazole-5-carboxamide] |  |  | < 5.00 |
| > 2000 nM | C[C@H]1CC[C@@H](NC(=O)c2nc(C(C)(C)C)no2)CN1c1ncnc2[nH]c3cc(N4CCN(CC5CCN(c6ccc(N7CCC(=O)NC7=O)cc6)CC5)CC4)ccc3c12 [Example 129, 3-(tert-butyl)-N-((3R,6S)-1-(7-(4-((1-(4-(2,4-dioxotetrahydropyrimidin-1(2H)-yl)phenyl)piperidin-4-yl)methyl)piperazin-1-yl)-9H-pyrimido[4,5-b]indol-4-yl)-6-methylpiperidin-3-yl)-1,2,4-oxadiazole-5-carboxamide] | 5.69 |  |  |
| 63.2 nM | C[C@@H](NC(=O)c1nc(C(C)(C)C)no1)C1CCN(c2ncnc3[nH]c4cc(N5CCN(CC6CCN(c7ccc(N8CCC(=O)NC8=O)cc7)CC6)CC5)ccc4c23)CC1 [Example 130, (R)-3-(tert-butyl)-N-(1-(1-(7-(4-((1-(4-(2,4-dioxotetrahydropyrimidin-1(2H)-yl)phenyl)piperidin-4-yl)methyl)piperazin-1-yl)-9H-pyrimido[4,5-b]indol-4-yl)piperidin-4-yl)ethyl)-1,2,4-oxadiazole-5-carboxamide] | < 5.00 |  |  |
| 27.5 nM | CC(C)(C)c1noc(C(=O)NC(C)(C)C2CCN(c3ncnc4[nH]c5cc(N6CCN(CC7CCN(c8ccc(N9CCC(=O)NC9=O)cc8)CC7)CC6)ccc5c34)CC2)n1 [Example 131, 3-(tert-butyl)-N-(2-(1-(7-(4-((1-(4-(2,4-dioxotetrahydropyrimidin-1(2H)-yl)phenyl)piperidin-4-yl)methyl)piperazin-1-yl)-9H-pyrimido[4,5-b]indol-4-yl)piperidin-4-yl)propan-2-yl)-1,2,4-oxadiazole-5-carboxamide] | < 5.00 |  |  |
| > 2000 nM | Cc1cc(-c2ncnc3[nH]c4c(c23)CCC(N2CCN(CC3CCN(c5ccc(N6CCC(=O)NC6=O)cc5)CC3)CC2)C4)ccc1[C@@H](C)NC(=O)c1nc(C(C)(C)C)no1 (stereo partly drawn) [Example 132, 3-(tert-butyl)-N-((1R)-1-(4-(7-(4-((1-(4-(2,4-dioxotetrahydropyrimidin-1(2H)-yl)phenyl)piperidin-4-yl)methyl)piperazin-1-yl)-6,7,8,9-tetrahydro-5H-pyrimido[4,5-b]indol-4-yl)-2-methylphenyl)ethyl)-1,2,4-oxadiazole-5-carboxamide] | < 5.00 |  |  |
| > 2000 nM | Cc1cc(-c2ncnc3[nH]c4c(c23)CCC(N2CCN(C3CC(c5ccc([C@H]6CCC(=O)NC6=O)cc5)C3)CC2)C4)ccc1[C@@H](C)NC(=O)c1nc(C(C)(C)C)no1 (stereo partly drawn) [Example 133, 3-(tert-butyl)-N-((1R)-1-(4-(7-(4-(3-(4-((R)-2,6-dioxopiperidin-3-yl)phenyl)cyclobutyl)piperazin-1-yl)-6,7,8,9-tetrahydro-5H-pyrimido[4,5-b]indol-4-yl)-2-methylphenyl)ethyl)-1,2,4-oxadiazole-5-carboxamide] | < 5.00 |  |  |

| SMILES | DC50 [1] | pIC50 ([2]; Homo sapiens) | IC50 ([2]; Homo sapiens, HEK293, 72 h, read-out: HEK293 (nM)) | pIC50 [2] |
| --- | --- | --- | --- | --- |
| Cc1cc(-c2ncnc3[nH]c4cc(N5CCN(CCc6ccc7c(c6)C6(CC6)C(=O)N7C6CCC(=O)NC6=O)CC5)ccc4c23)ccc1[C@@H](C)NC(=O)c1nc(C2(C)CC2)no1 (stereo partly drawn) [Example 123, N-((1R)-1-(4-(7-(4-(2-(1′-(2,6-dioxopiperidin-3-yl)-2′-oxospiro[cyclopropane-1,3′-indolin]-5′-yl)ethyl)piperazin-1-yl)-9H-pyrimido[4,5-b]indol-4-yl)-2-methylphenyl)ethyl)-3-(1-methylcyclopropyl)-1,2,4-oxadiazole-5-carboxamide] | 0.192 nM |  | > 10000 nM |  |
